Entries after “also recorded” stand apart in the source; their conditions may differ.
Experiments:
Assay type in all cases: cell-based
HCV = HCV infectivity titer of supernatants from persistently infected HUH-7 cells; settings: PiB 16 μM and 8 μM, 1 hour pre-treatment plus 9 hours at 37° C.
Procedure: (§1) Cells persistently infected with HCV were treated with vehicle (DMSO), an MTP inhibitor (BMS-200150) capable of inhibiting HCV secretion, or with two doses of PiB (16 μM and 8 μM). After 1 hour of pre-treatment at 37° C., cells were washed with warm PBS and further incubated in normal medium containing the same drugs for an additional 9 hours at 37° C. Cell supernatants containing infectious HCV were collected for infectivity titer determination.
as §1, with “Infection assays for HCV: Persistently” for “Cells persistently”, “cells” for “with HCV”, “inhibitors” for “drugs”, “determination. […] Note that Pin1 is able to block HIV-1 in the HUH-7 cell line used to propagate HCV.” for “determination.”
Persistently infected HUH-7 cells were treated with solvent DMSO (circles), or increasing concentrations of PiB (squares). After 1 hour of pre-treatment cells were washed and further incubated in normal medium containing the same inhibitors for an additional 9 hours at 37° C. Cell supernatants containing infectious HCV were collected for infectivity titer determination.

HIV-1 [1] = experiment: HIV-1 replication in human PBLs monitored by p24 ELISA
Procedure: (E) Replication kinetics of wild-type HIV-1 in human PBLs is enhanced by Pin1 isomerase inhibitors. 2×10^6 PBLs from patient donors were challenged with HIV-1 in the presence (lighter squares, top) or absence (black circles, bottom) of 10 μM PiB, which was added again at day 3 to maintain drug pressure. Replication was monitored by sampling virus concentration in supernatants via p24 ELISA.
Cell Lines and PBMCs: The TZM-bl cell line was obtained through the NIH AIDS Research and Reference Reagent Program, Division of AIDS, NIAID, NIH: TZM-bl from Dr. John C. Kappes, Dr. Xiaoyun Wu and Tranzyme Inc. The sMAGI cell line was obtained through the AIDS Research and Reference Reagent Program, Division of AIDS, NIAID, NIH: CMMT-CD4-LTR-β-Gal (sMAGI) from Dr. Julie Overbaugh. African green kidney BS-C-1 CCL-26, African green kidney CV-1 CCL-70, African green kidney Vero CCL-81, owl kidney OMK(637-69) CRL-1556 and 293T cell lines were obtained from ATCC. To generate PBMCs, human blood from normal healthy donors (General Clinical Research Center, TSR1) was fractionated via gradient centrifugation through histopaque-1077 (Sigma-Aldrich). Peripheral blood lymphocytes (PBLs) were cultured in RPMI supplemented with 20% FBS, 20 U ml^−1 IL-2.
Infection assays for retrovirus: Single-round infections: CD4^+ TZM-bl 100,000 cells/well/mL were seeded onto 24-well plates 24 hours prior to infection. These cells were infected in quadruplicate to 24-well plates. Infectivity was scored using an enzymatic galactosidase activity assay. Specifically, infected TZM-bl cells were washed and lysed, and 20 μl of lysate was transferred to a 96-well plate for detecting β-galactosidase activity. 100 μl of reaction buffer Galacton-Star substrate (Applied Biosystems, Bedford, Mass.), diluted 1:50, was added to 20 μl of lysate, and the light emission was measured over 1 second in a microplate luminometer after 30 minutes incubation. For human PBMC infections, cells were exposed to 10 ng of wild-type virus for 6 hours, washed, and split into two flasks: one with 10 μM PiB added on day 0 and 3, and one without PiB. Replication was monitored by p24 ELISA. For measuring infectivity of GFP-virus, 50,000 TZMb1, sMAGI, OMK, Vero, BSC-1 and CV-1 cells/well/mL were seeded onto 6-well plates respectively 24 hours prior to infection. Viruses were used to infect in duplicate wells, incubated for 48 hours, washed with PBS, trypsinized, fixed in 1% formaldehyde and subsequently analyzed by fluorescence-activated cell sorting (FACS) for percentage cells infected. […]
PBLs from human donors were challenged with HIV-1 in the presence (squares) or absence (circles) of 10 μM PiB. Replication was monitored by sampling virus concentration in supernatants via p24 ELISA. […]

HIV-1 [2] = experiment: HIV-1 viral production in 293T producer cells, p24 ELISA of supernatants
Description: Plasmids: Laboratory-adapted provirus NL4.3, and the CypA-independent NL4.3 CAi2 were kindly provided by Akio Adachi (Department of Virology, Institute of Health Biosciences, The University of Tokushima Graduate School, JAPAN). Mutant R9G89V was a gift from P. Gallay (TSR1) as were NL4.3-GFP and SIV-GFP (originally Dana Gabuzda, Dana Farber Cancer Institute). NL4.3 A92E was kindly provided by W. Phares (Genetics Unit, Novartis Forschungsinstitut, Vienna, Austria). R9Δgp160 plasmid clone was kindly provided by C. Aiken (Vanderbilt Medical Center). VSV-G (CMV-VSV-G) was kindly provided by D. Trono (École Polytechnique Fédérale de Lausanne). Both bMLV-GFP and nMLV-GFP in the form of pCIG3-N, pCIG3-B as well as pCNCG were kindly provided by J. Stoye (National Institute for Medical Research, UK). Isomerase mutant Pin1 (pFLAG-Pin1R68,69A) and WW-domain mutant Pin1 (pFLAG-Pin1 W34A) were constructed by site-directed mutagenesis. Pseudotyping experiments were performed using DNA constructs encoding the VSV-G generously provided by D. Trono. Human Pin1 was cloned into pFLAG (Sigma-Aldrich) making pFLAG-Pin1. Viruses were produced by transfection of 293T cells using either GeneJuice (Novagen) or calcium phosphate. […] All viruses were harvested 24-48 hours post-transfection and filtered (0.2-μM filter, Steriflip Millipore). […]

For `CCOC(=O)CN1C(=O)c2ccc3c4c(ccc(c24)C1=O)C(=O)N(CC(=O)OCC)C3=O` [PiB, diethyl-1,3,6,8-tetrahydro-1,3,6,8-tetraoxobenzo[lmn][3,8]phenanthroline-2,7-diacetate], the “infectious HCV in cell supernatants (infectivity titer)” value (HCV) was “does not enhance HCV infectivity; also recorded: does not enhance replication”, the “replication kinetics of wild-type HIV-1 in human PBLs” value (HIV-1 [1]; 10 μM PiB, added again at day 3) was “enhanced” and the “elevated replication kinetics versus untreated” value (HIV-1 [1]; human PBLs, 10 μM PiB, after six days, average of two donors) was “seven fold”. The “increase in infectivity versus untreated” value (HIV-1 [1]; human PBLs, day 5) was “seven-fold”, the “p24 in supernatant at peak replicative differential” value (HIV-1 [1]; human PBLs, day 5, untreated 0.2 μg/ml) was 1.4 µg/mL and the “viral production (HIV-1 capsid in viral supernatants by p24 ELISA)” value (HIV-1 [2]) was “Neither inhibitor influences viral production; also recorded: do not alter viral production”.
